Measurements reported in ChEMBL document CHEMBL1201862, “PubChem BioAssay data set” (2004).
Activity calls are given as the source filed them. Cut-off read from the data, not from the text of the source, for most assays here: actives have a measured EC50 and inactives only a lower limit.

Tests used:
[1] = cytotoxicity toward NIH3T3 fibroblasts, dose response, counter-screen, cell-based, ATP luminescence, mouse fibroblasts (AID 2010); assay type: functional;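 note: cells exposed to compound for about 90 hours before reading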
[2] = inhibitors of intracellular T. cruzi replication, confirmation, NIH3T3 host cells, beta-gal luminescence (AID 2044); assay type: functional, cell-based;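 note: intracellular parasites grown in NIH/3T3 mouse fibroblasts as host cells; luminescent beta-galactosidase reporter signal from transgenic T. cruzi replicating inside host cells; inhibitors lower the luminescence signal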
[3] = target: T1, Heat shock factor protein 1 (Mus musculus, UniProt P38532); experiment: inhibition of MG132-induced HSE-luciferase signal, confirmation, cell-based, NIH3T3, luminescence, dose retest (AID 2382); assay type: functional;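 note: NIH3T3 fibroblasts with HSF1-driven luciferase reporter stressed by proteasome inhibitor MG132; luminescence from HSF1-driven luciferase expression after 8 hours of MG132 stress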
T1 sequence (P38532 whole entry): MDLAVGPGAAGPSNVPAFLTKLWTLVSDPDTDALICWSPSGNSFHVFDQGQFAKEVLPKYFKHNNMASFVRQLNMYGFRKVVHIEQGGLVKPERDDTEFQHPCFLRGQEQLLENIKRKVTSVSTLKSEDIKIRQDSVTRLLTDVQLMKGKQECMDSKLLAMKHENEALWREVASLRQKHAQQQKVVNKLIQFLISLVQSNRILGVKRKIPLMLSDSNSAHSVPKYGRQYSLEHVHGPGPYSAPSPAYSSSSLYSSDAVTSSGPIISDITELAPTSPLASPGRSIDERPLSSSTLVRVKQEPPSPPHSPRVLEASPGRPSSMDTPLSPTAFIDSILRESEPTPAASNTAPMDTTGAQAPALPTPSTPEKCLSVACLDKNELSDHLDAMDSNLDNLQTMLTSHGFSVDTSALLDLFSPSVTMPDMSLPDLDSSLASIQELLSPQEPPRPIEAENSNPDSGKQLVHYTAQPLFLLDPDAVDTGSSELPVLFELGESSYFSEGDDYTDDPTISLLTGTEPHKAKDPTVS

Cytochrome P450 2D6 = Cytochrome P450 2D6 (Homo sapiens, UniProt P10635);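 note: CYP2D6 member of a cytochrome P450 panel assay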
INS1 = experiment: beta cell apoptosis inhibitors, cytokine rescue, dose response, luminescence, retest (AID 449756); assay type: functional, cell-based; conditions: Rattus norvegicus;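 note: cell death triggered by IL-1 beta plus TNF-alpha plus IFN-gamma mixture; protective hits raise ATP signal compared with cytokine alone wells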
[4] = Luminescence Cell-Based Dose Retest to Confirm Inhibitors of Cancer Stem Cells. [Related pubchem assays (depositor defined):AID2717, AID2721]; assay type: functional; conditions: Homo sapiens
Streptokinase A = target: T2, Streptokinase A (Streptococcus pyogenes serotype M1, UniProt P10520); experiment: S. pyogenes streptokinase expression inhibitors, potency, dose response, plasminogen activation absorbance, OD405 (AID 1914); assay type: functional, Streptococcus pyogenes M1 GAS;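 note: secreted streptokinase activity via plasminogen activation per viability signal from cell pellet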
T2 sequence (P10520 whole entry): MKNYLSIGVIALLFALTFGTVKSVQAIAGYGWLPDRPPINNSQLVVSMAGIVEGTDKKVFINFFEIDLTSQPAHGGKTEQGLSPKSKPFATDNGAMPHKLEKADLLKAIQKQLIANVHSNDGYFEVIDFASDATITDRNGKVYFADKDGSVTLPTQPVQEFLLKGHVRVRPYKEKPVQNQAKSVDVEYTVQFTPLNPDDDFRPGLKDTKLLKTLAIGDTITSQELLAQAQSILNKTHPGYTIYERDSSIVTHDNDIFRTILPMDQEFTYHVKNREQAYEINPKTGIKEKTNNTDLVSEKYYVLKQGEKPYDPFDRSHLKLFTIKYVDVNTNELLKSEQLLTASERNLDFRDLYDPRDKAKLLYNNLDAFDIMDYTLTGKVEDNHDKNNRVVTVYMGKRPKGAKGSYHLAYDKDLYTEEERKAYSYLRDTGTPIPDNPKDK

Streptococcus = experiment: Group A Streptococcus viability loss, dose response, counter-screen for streptokinase expression inhibitor project, luminescence, BacTiterGlo (AID 1915); assay type: functional, organism-based;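 note: potency for reduction of bacterial viability or growth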
[5] = test system: Streptococcus sp. 'group A'; experiment: growth inhibition of control SK(-) GAS strain, dose response, counter-screen for streptokinase expression inhibitor project, luminescence, kanamycin, BacTiterGlo, confirmation (AID 1900); assay type: functional, organism-based
[6] = Luminescence Cell-Based Dose Response HTS to Identify Inhibitors of 5'UTR Stem-Loop Driven Prion Protein mRNA Translation in H4 Neuroglioblastoma Cells. [Related pubchem assays: 1827 (Project Summary), 1813 (Primary HTS)]; assay type: functional
[7] = inhibitors of firefly luciferase expression or activity, dose response, H4 neuroglioma cells, luminescence (AID 1990); assay type: functional, cell-based

Cytochrome P450 2D6, sequence (P10635 whole entry): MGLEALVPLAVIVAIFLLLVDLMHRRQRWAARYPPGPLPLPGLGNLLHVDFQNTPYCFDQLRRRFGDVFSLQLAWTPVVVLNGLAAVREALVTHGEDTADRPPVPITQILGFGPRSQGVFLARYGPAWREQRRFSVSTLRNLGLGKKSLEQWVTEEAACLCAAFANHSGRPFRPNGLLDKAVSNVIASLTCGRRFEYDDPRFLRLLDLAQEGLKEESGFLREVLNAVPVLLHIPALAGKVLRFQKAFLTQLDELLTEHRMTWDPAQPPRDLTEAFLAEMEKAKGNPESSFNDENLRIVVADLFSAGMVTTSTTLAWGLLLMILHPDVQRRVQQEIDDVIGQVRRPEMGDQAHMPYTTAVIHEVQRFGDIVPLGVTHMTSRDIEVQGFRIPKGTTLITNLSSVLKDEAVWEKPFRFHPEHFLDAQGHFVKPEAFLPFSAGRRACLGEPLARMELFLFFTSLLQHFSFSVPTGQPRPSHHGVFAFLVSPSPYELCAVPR

COC(=O)c1[nH]c2cc(C)ccc2c1NC(=O)CN1CCCc2ccccc21
EC50 [1]: > 60 µM (not active)
EC50 [2]: 0.99 µM (active)

O=C(c1ccco1)N(CCCN1CCOCC1)c1nc(-c2ccc(F)cc2)cs1
EC50 [1]: 30.5 µM (active)
EC50 [2]: 1.28 µM (active)

NC(=O)COc1ccc(-n2cnnn2)cc1
EC50 [3]: > 195 µM (not active)

COc1ccc2nc(COC(=O)c3cccs3)c(C(C)=O)[n+]([O-])c2c1
EC50 [3]: > 195 µM (not active)

COc1ccccc1NS(=O)(=O)c1ccc(C)c(C(N)=O)c1
EC50 [3]: > 195 µM (not active)

Cc1ccc(CSCCNS(=O)(=O)c2ccc([N+](=O)[O-])cc2)cc1
EC50 [1]: > 60 µM (not active)
EC50 [2]: 0.939 µM (active)

COC(=O)c1ccccc1NC(=O)c1cc2nc(C3CC3)cc(C(F)(F)F)n2n1
AC50 (Cytochrome P450 2D6): 3.16 µM (inconclusive)

c1csc(CN2CC3(CCNCC3)C2)n1
AC50 (Cytochrome P450 2D6): 39.8 µM (inconclusive)

O=C(O)c1cccc(NC(=O)c2ccccc2NC(=O)c2ccccc2F)c1
EC50 [3]: > 195 µM (not active)

Cc1ccccc1NC(S)=NCC1CCN(C(C)c2ccccc2)C1 (stereo unspecified)
EC50 [1]: > 60 µM (not active)
EC50 [2]: 1.1 µM (active)

Cc1cccc(NC(=O)c2ccc([N+](=O)[O-])s2)c1C
EC50 [1]: > 60 µM (not active)
EC50 [2]: 0.691 µM (active)
AC50 (INS1): 12 µM (active)

COc1cc(NC(=O)CN(C)S(=O)(=O)c2ccc(-c3ccc(O)nn3)s2)cc(OC)c1
EC50 [3]: > 195 µM (not active)

CN1C(=O)C(=Cc2ccc(N3CCCCCC3)o2)C(=O)N(C)C1=S
AC50 (Cytochrome P450 2D6): 20 µM (inconclusive)

Fc1ccc(Nc2nc(N/N=C/c3ccco3)nc(N3CCCCC3)n2)cc1
EC50 [1]: 9.91 µM (active)
EC50 [2]: 2.88 µM (active)

CCN1CCN(C(S)=Nc2sc(C)c(-c3ccccc3)c2C(=O)OC)CC1
AC50 [4]: 3.65 µM (active)

COc1ccccc1CN1CN(S(=O)(=O)c2ccccc2)c2nc3ccccc3nc21
EC50 (Streptokinase A): 55.1 µM (active)
EC50 (Streptococcus): > 150 µM (not active)
EC50 [5]: 47.6 µM (active)

COc1ccc(O)c(C(=O)c2cnc3nc4ccccc4n3c2)c1
AC50 (INS1): 1.23 µM (active)

O=C(/C=C/c1ccc(F)cc1)c1ccccc1Br
AC50 [4]: 3.87 µM (active)

COc1ccc(O)c(C2=Nc3ccccc3N=C(c3cccs3)C2)c1
EC50 [3]: > 195 µM (not active)

CC(C)C(=O)N1CCN(c2ccccc2NC(=O)COc2ccc(C3CCCCC3)cc2)CC1
EC50 (Streptokinase A): 18.9 µM (inconclusive)
EC50 (Streptococcus): > 150 µM (not active)
EC50 [5]: 15.8 µM (active)

COc1cccc(Nc2nc(-c3ccccc3)nc3ccccc23)c1
AC50 [4]: 5.53 µM (active)

O=C(CSc1nnc(SCc2cccc3ccccc23)s1)c1ccc2c(c1)OCO2
AC50 (Cytochrome P450 2D6): 7.94 µM (inconclusive)

CSc1nnc2ccc(-c3ccc(C)cc3)nn12
EC50 (Streptokinase A): > 150 µM (not active)
EC50 (Streptococcus): > 150 µM (not active)
EC50 [5]: > 150 µM (not active)

CCOC(=O)c1cccc(-[n+]2c(-c3ccccc3)cc(-c3ccccc3)cc2-c2ccccc2)c1.[O-][Cl+3]([O-])([O-])[O-]
AC50 (INS1): 2.68 µM (active)

CCOC(=O)Cn1nc(C)c(NC(=O)COc2ccc([N+](=O)[O-])cc2)c1C
EC50 [3]: > 195 µM (not active)

CCC1Oc2ccc(C)cc2N(CC(=O)N(Cc2cccnc2)Cc2ccc(C)o2)C1=O (stereo unspecified)
EC50 [1]: > 30 µM (not active)
EC50 [2]: 0.166 µM (active)

CC1CCN(c2nc(-c3ccc(F)cc3)cc(C(F)(F)F)n2)CC1
EC50 (Streptokinase A): 4.61 µM (active)
EC50 (Streptococcus): 17.5 µM (active)
EC50 [5]: 11.6 µM (active)

C/C(=N\Nc1nc(C(C)(C)C)cs1)c1ccccc1
EC50 [1]: > 30 µM (not active)
EC50 [2]: 0.673 µM (active)

CC(/C=C/c1ccc(N(C)C)cc1)=N\NC1=NC(=O)CC(C(=O)Nc2ccccc2)S1 (stereo unspecified)
EC50 (Streptokinase A): > 150 µM (not active)
EC50 (Streptococcus): 9.04 µM (active)
EC50 [5]: 2.94 µM (active)

Cc1c(CCOC(=O)c2cc([N+](=O)[O-])cc([N+](=O)[O-])c2)sc[n+]1CC(=O)c1ccccc1
EC50 [1]: > 60 µM (not active)
EC50 [2]: 1.97 µM (active)

O=C(c1ccccc1)c1ccc(OCCCN2CCCC2)cc1
EC50 [1]: > 60 µM (not active)
EC50 [2]: 0.889 µM (active)

CC(C)(C)NC(=O)CSC(=Nc1ccc(F)cc1)NC#N
AC50 (Cytochrome P450 2D6): 25.1 µM (inconclusive)

CCCNC(=O)CSc1nc(-c2cccs2)cc(C(F)(F)F)n1
AC50 (Cytochrome P450 2D6): 3.16 µM (inconclusive)

CCN(CCCNC(=O)CCCOc1cc(=O)n(C)c2ccccc12)Cc1ccccc1
EC50 [1]: > 60 µM (not active)
EC50 [2]: 0.281 µM (active)

COc1cc(NC(=O)CN(C)S(=O)(=O)c2ccc3c(c2)CC(C)N3C(C)=O)cc(OC)c1 (stereo unspecified)
EC50 [3]: > 195 µM (not active)

COc1cccc(/C=N/NC(=O)CNC(=O)c2cccs2)c1O
AC50 (INS1): 7.39 µM (active)

COc1ccc(Cl)cc1N(CC(=O)N1CCN(Cc2ccccc2)CC1)S(C)(=O)=O
EC50 [3]: > 195 µM (not active)

COc1ccc(C(=O)N/N=C(\C)Cn2cnc([N+](=O)[O-])n2)cc1
EC50 [1]: > 60 µM (not active)
EC50 [2]: 1.03 µM (active)

O=C(/C=C/c1ccc(F)cc1)c1cc(Br)ccc1O
AC50 [4]: 13.1 µM (active)

O=C(NCC(c1cccnc1)N1CCN(c2ccccc2F)CC1)Oc1ccccc1 (stereo unspecified)
EC50 [1]: > 60 µM (not active)
EC50 [2]: 0.401 µM (active)

C[N+]1(C)[C@@H]2CC[C@H]1CC(OC(=O)c1c[nH]c3ccccc13)C2 (stereo partly specified)
AC50 (Cytochrome P450 2D6): 31.6 µM (inconclusive)

Cc1cc(C)c2cc(CN(CCO)C(=O)Nc3ccc(Cl)cc3)c(O)nc2c1
EC50 [6]: 33.3 µM (active)
EC50 [7]: 15.8 µM (active)

CCCCn1c(N)c(N(CCC(C)C)C(=O)c2ccc([N+](=O)[O-])s2)c(=O)[nH]c1=O
EC50 [1]: > 60 µM (not active)
EC50 [2]: 0.997 µM (active)

Cc1ccc(C(=O)N2CCOCC2)cc1Cl
EC50 (Streptokinase A): > 150 µM (not active)
EC50 (Streptococcus): > 150 µM (not active)
EC50 [5]: > 150 µM (not active)

O=C(Nc1cccnc1)c1ccc([N+](=O)[O-])s1
AC50 (INS1): 7.27 µM (active)

CN(C)S(=O)(=O)c1ccc(-c2csnn2)s1
EC50 [3]: > 195 µM (not active)

CCOc1ccc(CN2CCC(n3nccc3NC(=O)c3ccccc3OC)CC2)cc1
EC50 [1]: > 60 µM (not active)
EC50 [2]: 0.997 µM (active)

CCCCCCSc1cc(-c2nc3cnccn3c2NCc2ccccc2)ccc1OC
EC50 (Streptokinase A): 16.7 µM (active)
EC50 (Streptococcus): 12.9 µM (active)
EC50 [5]: 4.3 µM (active)

Cc1ccc(O)c(C(=O)CC(=O)c2ccc(C(C)(C)C)cc2)c1
EC50 (Streptococcus): 3.66 µM (active)
EC50 [5]: 1.63 µM (active)

CC(=O)NCc1ccc(C(=O)CCl)s1
EC50 [1]: 3.9 µM (active)
EC50 [2]: 3.21 µM (active)

C[C@@H](N)[C@@H](C)Cc1ccccc1
AC50 (Cytochrome P450 2D6): 3.98 µM (inconclusive)

CC(C)(C)c1ccc(Oc2cccc(C3CC(=O)C(C4NCCc5ccccc54)C(=O)C3n3cncn3)c2)cc1 (stereo unspecified)
EC50 (Streptokinase A): > 150 µM (not active)
EC50 (Streptococcus): > 150 µM (not active)
EC50 [5]: 71.1 µM (active)

COc1ccc(NC(=O)c2ccc3c(c2)NC(=O)CS3)cc1S(=O)(=O)Nc1ccc(Br)cc1
EC50 (Streptokinase A): > 150 µM (not active)
EC50 (Streptococcus): 26.3 µM (active)
EC50 [5]: 4.17 µM (active)

COc1cc(CCCN2CCNC[C@@H]2Cc2ccc(O)cc2)cc(OC)c1OC
EC50 [3]: > 195 µM (not active)

Cn1cccc1C(=O)NC(=O)COC(=O)C12CC3CC(CC(O)(C3)C1)C2
EC50 [3]: 0.372 µM (active)

CCOC(=O)N1CCN(C(=O)C(CC)n2nc(C)c3sc4ccccc4c3c2=O)CC1 (stereo unspecified)
AC50 (Cytochrome P450 2D6): 39.8 µM (inconclusive)

COc1ccc(S(=O)(=O)NCC(c2cccnc2)N2CCN(Cc3ccccc3)CC2)cc1C (stereo unspecified)
EC50 [1]: > 60 µM (not active)
EC50 [2]: 0.678 µM (active)

CCOC(=O)c1ccc(NC(=O)c2[nH]cnc2C(=O)NCCCCNC(=O)c2nc[nH]c2C(=O)Nc2ccc(C(=O)OCC)cc2)cc1
AC50 [4]: 2.51 µM (active)
